Test results published in the kinase profiling compilation of Christmann-Franck et al. (2016).

Legend:
Test in all cases: KINOMEscan competition binding
Details in all cases: compound 10.0 µM
[1] = system: FLT3 (human), P36888 [N841I]
[2] = system: ABL1 (human), P00519 [E255K]
[3] = system: EGFR (human), P00533 [L861Q]
[4] = system: PIK3CA (human), P42336 [C420R]
[5] = system: PIK3CA (human), P42336 [E545A]
[6] = system: EGFR (human), P00533 [P753S; 747-752 del]
[7] = system: EIF2AK4 KD2 (human), Q9P2K8 [S808G]
[8] = system: PIK3CA (human), P42336 [H1047Y]
[9] = system: PIK3CA (human), P42336 [Q546K]
[10] = system: KIT (human), P10721 [V559D/T670I]
[11] = system: PIK3CA (human), P42336 [E545K]
[12] = system: KIT (human), P10721 [V559D]
[13] = system: FLT3 (human), P36888 [ITD]
[14] = system: EGFR (human), P00533 [G719S]
[15] = system: EGFR (human), P00533 [746-750 del]
[16] = system: PIK3CA (human), P42336 [I800L]
[17] = system: KIT (human), P10721 [D816V]
[18] = system: FLT3 (human), P36888 [K663Q]
[19] = system: ABL1 (human), P00519 [M351T]

Chain of PIK3CA (human), P42336 [C420R] (P42336 whole entry C420R, looked up): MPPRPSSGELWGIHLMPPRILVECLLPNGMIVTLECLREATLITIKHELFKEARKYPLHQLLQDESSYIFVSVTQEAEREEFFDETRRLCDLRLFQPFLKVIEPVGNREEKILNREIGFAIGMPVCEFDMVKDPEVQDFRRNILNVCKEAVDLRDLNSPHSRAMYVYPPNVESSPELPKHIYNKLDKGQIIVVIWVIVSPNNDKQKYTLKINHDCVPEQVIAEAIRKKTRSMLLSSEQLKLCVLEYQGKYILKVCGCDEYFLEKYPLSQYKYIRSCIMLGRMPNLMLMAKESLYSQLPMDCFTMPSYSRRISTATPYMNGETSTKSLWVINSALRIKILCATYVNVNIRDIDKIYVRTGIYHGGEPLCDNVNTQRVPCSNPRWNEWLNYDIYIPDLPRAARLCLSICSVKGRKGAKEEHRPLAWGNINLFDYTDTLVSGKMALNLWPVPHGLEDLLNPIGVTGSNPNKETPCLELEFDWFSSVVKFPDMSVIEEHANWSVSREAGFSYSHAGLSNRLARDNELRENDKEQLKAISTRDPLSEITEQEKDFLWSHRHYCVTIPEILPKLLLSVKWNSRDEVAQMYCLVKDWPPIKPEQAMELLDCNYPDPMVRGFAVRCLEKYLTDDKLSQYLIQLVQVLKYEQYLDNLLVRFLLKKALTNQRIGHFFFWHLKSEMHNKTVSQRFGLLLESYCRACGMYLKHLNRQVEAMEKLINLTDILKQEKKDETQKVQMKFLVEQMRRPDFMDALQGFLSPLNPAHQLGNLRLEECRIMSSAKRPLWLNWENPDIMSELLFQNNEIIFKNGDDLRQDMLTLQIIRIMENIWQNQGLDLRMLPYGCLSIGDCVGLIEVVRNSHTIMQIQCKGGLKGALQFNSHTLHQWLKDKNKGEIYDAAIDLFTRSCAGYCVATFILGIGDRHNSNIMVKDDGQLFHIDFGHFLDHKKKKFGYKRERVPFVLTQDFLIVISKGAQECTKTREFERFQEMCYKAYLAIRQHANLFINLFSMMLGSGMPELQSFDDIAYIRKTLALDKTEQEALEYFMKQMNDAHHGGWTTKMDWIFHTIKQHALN
Chain of PIK3CA (human), P42336 [H1047Y] (P42336 whole entry H1047Y, looked up): as the sequence (P42336 whole entry C420R, looked up) above, with R420C, H1047Y counted along it
Chain of KIT (human), P10721 [V559D] (P10721 whole entry V559D, looked up): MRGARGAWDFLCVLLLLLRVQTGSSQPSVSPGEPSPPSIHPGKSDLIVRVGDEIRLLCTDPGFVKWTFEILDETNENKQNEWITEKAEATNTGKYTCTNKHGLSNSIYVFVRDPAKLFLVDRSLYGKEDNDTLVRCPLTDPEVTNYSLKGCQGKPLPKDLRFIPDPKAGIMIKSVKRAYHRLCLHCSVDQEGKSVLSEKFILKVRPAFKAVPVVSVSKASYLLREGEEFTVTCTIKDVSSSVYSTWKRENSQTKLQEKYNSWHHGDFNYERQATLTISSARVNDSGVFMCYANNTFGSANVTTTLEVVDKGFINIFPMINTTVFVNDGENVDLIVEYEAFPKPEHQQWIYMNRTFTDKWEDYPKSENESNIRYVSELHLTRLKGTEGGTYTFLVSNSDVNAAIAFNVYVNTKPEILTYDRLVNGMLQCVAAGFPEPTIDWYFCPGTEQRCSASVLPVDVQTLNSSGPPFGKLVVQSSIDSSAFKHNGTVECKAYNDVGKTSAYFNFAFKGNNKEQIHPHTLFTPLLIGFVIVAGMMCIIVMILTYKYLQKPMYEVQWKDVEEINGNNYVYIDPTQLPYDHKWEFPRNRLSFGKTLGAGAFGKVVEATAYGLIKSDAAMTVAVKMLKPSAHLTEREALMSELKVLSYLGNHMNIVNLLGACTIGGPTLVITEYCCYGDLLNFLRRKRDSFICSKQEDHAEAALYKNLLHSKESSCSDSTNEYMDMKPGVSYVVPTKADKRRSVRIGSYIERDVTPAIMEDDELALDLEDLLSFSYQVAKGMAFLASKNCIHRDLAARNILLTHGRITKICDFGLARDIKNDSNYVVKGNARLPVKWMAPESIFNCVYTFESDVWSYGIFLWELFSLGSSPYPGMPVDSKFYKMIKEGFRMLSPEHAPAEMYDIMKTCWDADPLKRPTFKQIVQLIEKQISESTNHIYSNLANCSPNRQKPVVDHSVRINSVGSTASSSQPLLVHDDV
Chain of PIK3CA (human), P42336 [E545K] (P42336 whole entry E545K, looked up): as the sequence (P42336 whole entry C420R, looked up) above, with R420C, E545K counted along it
Chain of KIT (human), P10721 [V559D/T670I] (P10721 whole entry V559D/T670I, looked up): as the sequence (P10721 whole entry V559D, looked up) above, with T670I counted along it
Chain of EIF2AK4 KD2 (human), Q9P2K8 [S808G] (Q9P2K8 whole entry S808G, looked up): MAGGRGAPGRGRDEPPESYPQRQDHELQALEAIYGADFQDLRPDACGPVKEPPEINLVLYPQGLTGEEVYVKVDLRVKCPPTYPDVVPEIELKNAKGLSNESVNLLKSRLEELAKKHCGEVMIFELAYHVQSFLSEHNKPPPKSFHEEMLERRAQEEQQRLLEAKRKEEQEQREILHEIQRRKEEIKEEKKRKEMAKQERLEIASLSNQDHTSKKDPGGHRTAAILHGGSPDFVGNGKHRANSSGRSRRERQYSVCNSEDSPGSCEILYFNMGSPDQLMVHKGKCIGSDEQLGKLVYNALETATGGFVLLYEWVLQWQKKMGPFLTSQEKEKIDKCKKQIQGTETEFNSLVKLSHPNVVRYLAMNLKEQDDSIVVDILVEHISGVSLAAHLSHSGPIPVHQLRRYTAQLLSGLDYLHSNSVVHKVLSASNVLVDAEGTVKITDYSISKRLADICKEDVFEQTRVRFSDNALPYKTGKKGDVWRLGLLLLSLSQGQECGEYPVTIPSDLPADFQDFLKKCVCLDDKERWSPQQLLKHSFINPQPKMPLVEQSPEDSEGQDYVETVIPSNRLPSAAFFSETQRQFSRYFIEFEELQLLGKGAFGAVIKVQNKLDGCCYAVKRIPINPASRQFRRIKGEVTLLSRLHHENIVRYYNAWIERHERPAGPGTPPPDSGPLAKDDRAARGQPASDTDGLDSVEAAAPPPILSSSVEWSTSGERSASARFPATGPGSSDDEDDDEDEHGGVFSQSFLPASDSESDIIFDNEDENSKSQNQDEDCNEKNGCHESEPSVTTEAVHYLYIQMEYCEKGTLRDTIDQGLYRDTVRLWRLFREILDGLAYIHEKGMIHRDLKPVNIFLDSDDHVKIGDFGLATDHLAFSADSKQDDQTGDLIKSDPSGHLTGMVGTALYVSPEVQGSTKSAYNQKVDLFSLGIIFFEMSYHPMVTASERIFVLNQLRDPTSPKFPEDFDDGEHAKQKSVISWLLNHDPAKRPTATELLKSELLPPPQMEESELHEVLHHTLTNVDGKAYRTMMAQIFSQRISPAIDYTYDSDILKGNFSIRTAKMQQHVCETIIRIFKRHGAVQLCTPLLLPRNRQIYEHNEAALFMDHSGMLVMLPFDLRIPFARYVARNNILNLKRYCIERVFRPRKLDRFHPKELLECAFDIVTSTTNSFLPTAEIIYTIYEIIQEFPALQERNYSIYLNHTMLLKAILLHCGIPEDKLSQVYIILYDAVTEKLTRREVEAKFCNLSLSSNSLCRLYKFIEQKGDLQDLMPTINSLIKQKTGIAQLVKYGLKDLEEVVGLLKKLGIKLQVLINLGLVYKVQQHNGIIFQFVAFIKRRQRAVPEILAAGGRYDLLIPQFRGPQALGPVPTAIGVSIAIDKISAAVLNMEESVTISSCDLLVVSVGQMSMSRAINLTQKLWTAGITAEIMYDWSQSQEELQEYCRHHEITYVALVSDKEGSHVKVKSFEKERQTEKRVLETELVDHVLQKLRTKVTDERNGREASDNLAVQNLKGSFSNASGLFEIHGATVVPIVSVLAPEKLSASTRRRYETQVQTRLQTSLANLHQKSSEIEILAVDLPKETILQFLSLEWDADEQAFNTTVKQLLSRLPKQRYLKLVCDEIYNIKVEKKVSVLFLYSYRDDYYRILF
Chain of KIT (human), P10721 [D816V] (P10721 whole entry D816V, looked up): as the sequence (P10721 whole entry V559D, looked up) above, with D559V, D816V counted along it
Chain of PIK3CA (human), P42336 [E545A] (P42336 whole entry E545A, looked up): as the sequence (P42336 whole entry C420R, looked up) above, with R420C, E545A counted along it
Chain of PIK3CA (human), P42336 [I800L] (P42336 whole entry I800L, looked up): as the sequence (P42336 whole entry C420R, looked up) above, with R420C, I800L counted along it
Chain of PIK3CA (human), P42336 [Q546K] (P42336 whole entry Q546K, looked up): as the sequence (P42336 whole entry C420R, looked up) above, with R420C, Q546K counted along it

Row | Structure (SMILES) | kinase still bound, per cent of control [1] | kinase still bound, per cent of control [2] | kinase still bound, per cent of control [3] | kinase still bound, per cent of control [4] | kinase still bound, per cent of control [5] | kinase still bound, per cent of control [6] | kinase still bound, per cent of control [7] | kinase still bound, per cent of control [8] | kinase still bound, per cent of control [9] | kinase still bound, per cent of control [10] | kinase still bound, per cent of control [11] | kinase still bound, per cent of control [12] | kinase still bound, per cent of control [13] | kinase still bound, per cent of control [14] | kinase still bound, per cent of control [15] | kinase still bound, per cent of control [16] | kinase still bound, per cent of control [17] | kinase still bound, per cent of control [18] | kinase still bound, per cent of control [19]
1 | O=c1cc(N2CCOCC2)oc2c(-c3cccc4c3sc3ccccc34)cccc12 | 100% | 100% | 100% | 19% | 8.2% | 90% | 100% | 11% | 16% | 100% | 24% | 80% | 93% | 100% | 69% | 2.2% | 58% | 86% | 100%
2 | CN(C)C/C=C/C(=O)Nc1ccc(C(=O)Nc2cccc(Nc3nccc(-c4cccnc4)n3)c2)cc1 | 31% | 29% | 56% | 100% | 100% | 96% | 97% | 100% | 100% | 10% | 100% | 0.5% | 30% | 97% | 100% | 60% | 30% | 34% | 29%
3 | O=c1[nH]c2ccccc2n1C1CCN(Cc2ccc(-c3nc4cc5[nH]cnc5cc4nc3-c3ccccc3)cc2)CC1 | 61% | 93% | 66% | 62% | 95% | 73% | 100% | 100% | 80% | 100% | 69% | 100% | 60% | 83% | 80% | 51% | 79% | 56% | 78%
4 | O=C1NC(=O)/C(=C/c2ccc3nccc(-c4ccncc4)c3c2)S1 | 39% | 71% | 87% | 0.4% | 0.1% | 74% | 7.4% | 0.9% | 1.3% | 76% | 0.75% | 30% | 47% | 78% | 81% | 12% | 63% | 37% | 56%
5 | CNC(=O)Nc1ccc(-c2nc(N3CC4CCC(C3)O4)c3cnn(C4CCC5(CC4)OCCO5)c3n2)cc1 | 89% | 100% | 64% | 11% | 8.8% | 62% | 83% | 9.6% | 11% | 100% | 11% | 85% | 100% | 69% | 38% | 5% | 82% | 69% | 100%
